# Laboratory results: patent US20230329282A1, “Application of 1-Deoxynojirimycin in Feed for Improving Nutritional Value and Sensory Effect of Rabbit Meat Products” (priority 2023, published 2023)
# Marks after values point to notes of the source that are not given here.
# Legend:
# [1] = tested on: New Zealand white rabbits; experiment: Nutritional ingredients of muscle (moisture, crude protein, ether extract); format: in vivo; settings: 28 d
# Description: The single-factor completely randomized test design is adopted. 36 45-day-old healthy New Zealand white rabbits (male) with the average weight of (1.05±0.04) kg are selected and randomly divided into 3 groups, and each group has 12 replicates with 1 rabbit per replicate. A control group is fed with a basal diet, an L-DNJ group is fed with the basal diet+0.14 g/kg DNJ, and an H-DNJ group is fed with the basal diet+0.28 g/kg DNJ. The diet is uniformly mixed to be prepared into cylindrical particles with the diameter of 6 mm and the length of 1 cm. The preliminary trial period is 14 d, and the trial period is 28 d.
# The rabbits are deprived of food (but not water) on the night of the end of the experiment, and after weighing in the next morning, 8 rabbits with similar weight are selected from each group and slaughtered. The longissimus dorsi muscles of the rabbits are collected, the pH values of the front, middle and back parts of the longissimus dorsi muscle are measured with a pH meter (Bante221, Shanghai Bante Instrument Co., Ltd.) having the function of automatic temperature compensation and then measured again after standing at room temperature for 24 h, and the pH decreased values of the muscle within 24 h are calculated. The pH value is the average value of the three readings. The meat color (L*, α*, b*) is measured with a TC-PIIG automatic color difference meter (Beijing Aoyike Photoelectric Instrument Co., Ltd.) on the muscle surface. The detection light source is D65 according to CIE laboratory standards, and the measurement area is 8 mm in diameter. The average value is obtained by making three measurements at each detection point.
# The contents of moisture, crude protein and ether extract in the muscle are measured according to the method proposed by Zhang Liying (Zhang Liying. Feed analysis and feed quality inspection technology [M]. 4th Ed. Beijing: China Agricultural University Press, 2016).
# [2] = tested on: New Zealand white rabbits; settings: cited from earlier work
# [3] = tested on: New Zealand white rabbits; experiment: Fatty acid composition of rabbit meat by GC/MS; format: in vivo; settings: 28 d
# Description: The single-factor completely randomized test design is adopted. 36 45-day-old healthy New Zealand white rabbits (male) with the average weight of (1.05±0.04) kg are selected and randomly divided into 3 groups, and each group has 12 replicates with 1 rabbit per replicate. A control group is fed with a basal diet, an L-DNJ group is fed with the basal diet+0.14 g/kg DNJ, and an H-DNJ group is fed with the basal diet+0.28 g/kg DNJ. The diet is uniformly mixed to be prepared into cylindrical particles with the diameter of 6 mm and the length of 1 cm. The preliminary trial period is 14 d, and the trial period is 28 d. 10 g of meat sample is crushed, total fat is extracted after freeze-drying and converted to fatty acid methyl ester using a mixture of boron trifluoride, hexane and methanol (35:20:45 v/v), and then the fatty acid composition and content are measured with a gas chromatograph-mass spectrometer GC/MS (Model 7890-5975, Agilent Technologies, Inc.) with a 60 m×0.25 mm×0.25 μm capillary column. Gas chromatographic conditions are set as follows: the injector temperature is 220° C., and the detector temperature is 275° C.; and the initial column chamber temperature is 140° C. for 5 min, then increased to 240° C. at a rate of 4° C./min and maintained at 240° C. for 15 min. Finally, the fatty acid is measured with a […]. The ionization energy is 70 eV, the ion source temperature is 200° C., and the scanning range is 50-500 m/z. The retention time of each peak in the chromatogram is compared with that of a mixed standard of 37 fatty acid methyl esters (B25881, Shanghai Yuanye Bio-technology Co., Ltd.) to determine the properties of each peak. Three measurements are made for each sample, and the results are averaged.
# [4] = H-DNJ: basal diet+0.28 g/kg DNJ
# [5] = L-DNJ: basal diet+0.14 g/kg DNJ
# [6] = Zhong Jingbo et al. 2021, higher additive amount
# [7] = high-concentration mulberry leaf DNJ (0.4 g/kg and 2 g/kg), Zhong Jingbo et al., Xie Hui et al.
smiles,measurement,setting,value
"OC[C@H]1NC[C@H](O)[C@@H](O)[C@@H]1O [DNJ, 1-deoxynojirimycin]",Nutritional ingredient of muscle: Crude protein (CP),[1]; [4],22.18
same,Nutritional ingredient of muscle: Ether extract (EE),[1]; [4],0.60^c
same,Nutritional ingredient of muscle: Moisture,[1]; [4],75.20
same,Nutritional ingredient of muscle: Crude protein (CP),[1]; [5],22.09
same,Nutritional ingredient of muscle: Ether extract (EE),[1]; [5],2.50^b
same,Nutritional ingredient of muscle: Moisture,[1]; [5],75.93
same,brightness L* of rabbit meat,[2]; [6],increase
same,redness α* of rabbit meat,[2]; [6],no effect
same,activity of the duodenal amylase,[2]; [7],decrease
same,digestibility of dry matter and ether extract in diet,[2]; [7],decrease
same,weight gain of animals,[2]; [7],slow weight gain
same,MUFA C16:1n7c in rabbit meat,[3]; [4],2.06%
same,MUFA C16:1n9c in rabbit meat,[3]; [4],0.42%
same,MUFA C17:1n7c in rabbit meat,[3]; [4],0.21%
same,MUFA C18:1n9c in rabbit meat,[3]; [4],23.01ª %
same,MUFA C18:1n9t in rabbit meat,[3]; [4],2.86ª %
same,MUFA C20:1n9t in rabbit meat,[3]; [4],0.24^a %
same,Monounsaturated fatty acid (MUFA) total,[3]; [4],27.13%
same,PUFA C16:3n4c in rabbit meat,[3]; [4],0.19ª %
same,PUFA C18:2n6c (linoleic acid) in rabbit meat,[3]; [4],31.77ª %
same,PUFA C20:2n6c in rabbit meat,[3]; [4],0.57^ab %
same,PUFA C20:3n6c in rabbit meat,[3]; [4],0.43%
same,PUFA C20:4n6c (arachidonic acid) in rabbit meat,[3]; [4],2.67ª %
same,PUFA C22:4n6c in rabbit meat,[3]; [4],0.31%
same,PUFA C22:5n6c (DPA) in rabbit meat,[3]; [4],0.13%
same,Polyunsaturated fatty acid (PUFA) total,[3]; [4],36.07ª %
same,SFA 9Methyl C14:0 in rabbit meat,[3]; [4],0.07%
same,SFA 12Methyl C13:0 in rabbit meat,[3]; [4],0.14^b %
same,SFA 13Methyl C14:0 in rabbit meat,[3]; [4],0.13ª %
same,SFA 14Methyl C15:0 in rabbit meat,[3]; [4],0.26%
same,SFA 14methyl C16:0 in rabbit meat,[3]; [4],0.10%
same,SFA C10:0 in rabbit meat,[3]; [4],0.25%
same,SFA C12:0 in rabbit meat,[3]; [4],0.92^b %
same,SFA C14:0 in rabbit meat,[3]; [4],2.14%
same,SFA C15:0 in rabbit meat,[3]; [4],0.53%
same,SFA C16:0 in rabbit meat,[3]; [4],26.52^b %
same,SFA C17:0 in rabbit meat,[3]; [4],0.52ª %
same,SFA C18:0 in rabbit meat,[3]; [4],5.11^b %
same,SFA C20:0 in rabbit meat,[3]; [4],0.11%
same,Saturated fatty acid (SFA) total,[3]; [4],36.75^b %
same,Unsaturated fatty acid (UFA) total,[3]; [4],63.20ª %
same,MUFA C16:1n7c in rabbit meat,[3]; [5],1.89%
same,MUFA C16:1n9c in rabbit meat,[3]; [5],0.51%
same,MUFA C17:1n7c in rabbit meat,[3]; [5],0.22%
same,MUFA C18:1n9c in rabbit meat,[3]; [5],20.60^b %
same,MUFA C18:1n9t in rabbit meat,[3]; [5],1.08^b %
same,MUFA C20:1n9t in rabbit meat,[3]; [5],0.16^b %
same,Monounsaturated fatty acid (MUFA) total,[3]; [5],24.45%
same,PUFA C16:3n4c in rabbit meat,[3]; [5],0.13^b %
same,PUFA C18:2n6c (linoleic acid) in rabbit meat,[3]; [5],28.40^b %
same,PUFA C20:2n6c in rabbit meat,[3]; [5],0.44^b %
same,PUFA C20:3n6c in rabbit meat,[3]; [5],0.15%
same,PUFA C20:4n6c (arachidonic acid) in rabbit meat,[3]; [5],1.61^b %
same,PUFA C22:4n6c in rabbit meat,[3]; [5],0.39%
same,Polyunsaturated fatty acid (PUFA) total,[3]; [5],31.12^b %
same,SFA 9Methyl C14:0 in rabbit meat,[3]; [5],0.06%
same,SFA 12Methyl C13:0 in rabbit meat,[3]; [5],0.30^a %
same,SFA 13Methyl C14:0 in rabbit meat,[3]; [5],0.12ª %
same,SFA 14Methyl C15:0 in rabbit meat,[3]; [5],0.27%
same,SFA 14methyl C16:0 in rabbit meat,[3]; [5],0.11%
same,SFA C10:0 in rabbit meat,[3]; [5],0.20%
same,SFA C12:0 in rabbit meat,[3]; [5],1.71ª %
same,SFA C14:0 in rabbit meat,[3]; [5],2.16%
same,SFA C15:0 in rabbit meat,[3]; [5],0.52%
same,SFA C16:0 in rabbit meat,[3]; [5],30.16ª %
same,SFA C17:0 in rabbit meat,[3]; [5],0.46^b %
same,SFA C18:0 in rabbit meat,[3]; [5],8.22ª %
same,SFA C20:0 in rabbit meat,[3]; [5],0.11%
same,Saturated fatty acid (SFA) total,[3]; [5],44.48ª %
same,Unsaturated fatty acid (UFA) total,[3]; [5],55.57^b %
